Laboratory results published in ChEMBL document CHEMBL4387728, “Synthetic glycopeptides reveal specific binding pattern and conformational change at O-mannosylated position of α-dystroglycan by POMGnT1 catalyzed GlcNAc modification” (Bioorg Med Chem, 2019).
Calls of active or inactive are those of the source. The calls are words filed in the database; no cut-off is given here. Peptide text beside a SMILES is read from it. * marks the point of attachment. X1 = CC(=O)N[C@H]1[C@H](O[C@H]2[C@@H](O)[C@H](O)[C@@H](CO)O[C@@H]2*)O[C@H](CO)[C@@H](O[C@@H]2O[C@H](CO)[C@H](O)[C@H](O[C@]3(C(=O)O)C[C@H](O)[C@@H](NC(C)=O)[C@H]([C@H](O)[C@H](O)CO)O3)[C@H]2O)[C@@H]1O; X2 = CC(=O)N[C@H]1[C@H](O[C@H]2[C@@H](O)[C@H](O)[C@@H](CO)O[C@@H]2*)O[C@H](CO)[C@@H](O[C@@H]2O[C@H](CO)[C@H](O)[C@H](O)[C@H]2O)[C@@H]1O; GlcNAc(β1-2)αMan = CC(=O)N[C@H]1[C@H](O[C@H]2[C@@H](O)[C@H](O)[C@@H](CO)O[C@@H]2*)O[C@H](CO)[C@@H](O)[C@@H]1O; αMan = OC[C@H]1O[C@H](*)[C@@H](O)[C@@H](O)[C@@H]1O; Hexanoyl(5-oxo) = CC(=O)CCCC(=O)*

Experiments:
Maackia amurensis = assay: Binding affinity to biotin-labeled Maackia amurensis agglutinin in pH 7.4 Tris buffer by fluorescence microarray method
Datura stramonium = assay: Binding affinity to biotin-labeled Datura stramonium agglutinin in pH 7.4 Tris buffer by fluorescence microarray method
Arachis hypogaea = assay: Binding affinity to biotin-labeled Arachis hypogaea agglutinin in pH 7.4 Tris buffer by fluorescence microarray method
[1] = test system: Sambucus racemosa subsp. sieboldiana; assay: Binding affinity to biotin-labeled Sambucus sieboldiana agglutinin in pH 7.4 Tris buffer by fluorescence microarray method
Erythrina crista-galli = assay: Binding affinity to biotin-labeled Erythrina crista-galli agglutinin in pH 7.4 Tris buffer by fluorescence microarray method
Triticum aestivum = assay: Binding affinity to biotin-labeled Wheat germ agglutinin in pH 7.4 Tris buffer by fluorescence microarray method
Canavalia ensiformis = assay: Binding affinity to biotin-labeled Canavalia ensiformis agglutinin in pH 7.4 Tris buffer by fluorescence microarray method
[2] = target: Laminin subunit alpha-1 (Homo sapiens) (UniProt P25391); assay: Binding affinity to biotin-labeled human recombinant laminin-1 at 10 ug/ml in pH 7.4 Tris buffer by fluorescence microarray method
Homo sapiens [3] = species on record: Homo sapiens; assay: Binding affinity to biotin-labeled human recombinant laminin-2 at 10 ug/ml in pH 7.4 Tris buffer by fluorescence microarray method
[4] = target: Lactotransferrin (Homo sapiens) (UniProt P02788); assay: Binding affinity to biotin-labeled lactoferrin (unknown origin) at 10 ug/ml in pH 7.4 Tris buffer by fluorescence microarray method
[5] = target: Laminin subunit alpha-1 (Homo sapiens) (UniProt P25391); assay: Binding affinity to biotin-labeled human recombinant laminin-1 at 10 ug/ml in pH 5.6 MES buffer by fluorescence microarray method
[6] = target: Lactotransferrin (Homo sapiens) (UniProt P02788); assay: Binding affinity to biotin-labeled lactoferrin (unknown origin) at 10 ug/ml in pH 5.6 MES buffer by fluorescence microarray method
Homo sapiens [7] = species on record: Homo sapiens; assay: Binding affinity to biotin-labeled human recombinant laminin-2 at 10 ug/ml in 5.6 MES buffer by fluorescence microarray method
[8] = Binding affinity to biotin-labeled Agaricus bisporus agglutinin in pH 7.4 Tris buffer by fluorescence microarray method

Chain of Laminin subunit alpha-1 (Homo sapiens) (P25391 whole entry): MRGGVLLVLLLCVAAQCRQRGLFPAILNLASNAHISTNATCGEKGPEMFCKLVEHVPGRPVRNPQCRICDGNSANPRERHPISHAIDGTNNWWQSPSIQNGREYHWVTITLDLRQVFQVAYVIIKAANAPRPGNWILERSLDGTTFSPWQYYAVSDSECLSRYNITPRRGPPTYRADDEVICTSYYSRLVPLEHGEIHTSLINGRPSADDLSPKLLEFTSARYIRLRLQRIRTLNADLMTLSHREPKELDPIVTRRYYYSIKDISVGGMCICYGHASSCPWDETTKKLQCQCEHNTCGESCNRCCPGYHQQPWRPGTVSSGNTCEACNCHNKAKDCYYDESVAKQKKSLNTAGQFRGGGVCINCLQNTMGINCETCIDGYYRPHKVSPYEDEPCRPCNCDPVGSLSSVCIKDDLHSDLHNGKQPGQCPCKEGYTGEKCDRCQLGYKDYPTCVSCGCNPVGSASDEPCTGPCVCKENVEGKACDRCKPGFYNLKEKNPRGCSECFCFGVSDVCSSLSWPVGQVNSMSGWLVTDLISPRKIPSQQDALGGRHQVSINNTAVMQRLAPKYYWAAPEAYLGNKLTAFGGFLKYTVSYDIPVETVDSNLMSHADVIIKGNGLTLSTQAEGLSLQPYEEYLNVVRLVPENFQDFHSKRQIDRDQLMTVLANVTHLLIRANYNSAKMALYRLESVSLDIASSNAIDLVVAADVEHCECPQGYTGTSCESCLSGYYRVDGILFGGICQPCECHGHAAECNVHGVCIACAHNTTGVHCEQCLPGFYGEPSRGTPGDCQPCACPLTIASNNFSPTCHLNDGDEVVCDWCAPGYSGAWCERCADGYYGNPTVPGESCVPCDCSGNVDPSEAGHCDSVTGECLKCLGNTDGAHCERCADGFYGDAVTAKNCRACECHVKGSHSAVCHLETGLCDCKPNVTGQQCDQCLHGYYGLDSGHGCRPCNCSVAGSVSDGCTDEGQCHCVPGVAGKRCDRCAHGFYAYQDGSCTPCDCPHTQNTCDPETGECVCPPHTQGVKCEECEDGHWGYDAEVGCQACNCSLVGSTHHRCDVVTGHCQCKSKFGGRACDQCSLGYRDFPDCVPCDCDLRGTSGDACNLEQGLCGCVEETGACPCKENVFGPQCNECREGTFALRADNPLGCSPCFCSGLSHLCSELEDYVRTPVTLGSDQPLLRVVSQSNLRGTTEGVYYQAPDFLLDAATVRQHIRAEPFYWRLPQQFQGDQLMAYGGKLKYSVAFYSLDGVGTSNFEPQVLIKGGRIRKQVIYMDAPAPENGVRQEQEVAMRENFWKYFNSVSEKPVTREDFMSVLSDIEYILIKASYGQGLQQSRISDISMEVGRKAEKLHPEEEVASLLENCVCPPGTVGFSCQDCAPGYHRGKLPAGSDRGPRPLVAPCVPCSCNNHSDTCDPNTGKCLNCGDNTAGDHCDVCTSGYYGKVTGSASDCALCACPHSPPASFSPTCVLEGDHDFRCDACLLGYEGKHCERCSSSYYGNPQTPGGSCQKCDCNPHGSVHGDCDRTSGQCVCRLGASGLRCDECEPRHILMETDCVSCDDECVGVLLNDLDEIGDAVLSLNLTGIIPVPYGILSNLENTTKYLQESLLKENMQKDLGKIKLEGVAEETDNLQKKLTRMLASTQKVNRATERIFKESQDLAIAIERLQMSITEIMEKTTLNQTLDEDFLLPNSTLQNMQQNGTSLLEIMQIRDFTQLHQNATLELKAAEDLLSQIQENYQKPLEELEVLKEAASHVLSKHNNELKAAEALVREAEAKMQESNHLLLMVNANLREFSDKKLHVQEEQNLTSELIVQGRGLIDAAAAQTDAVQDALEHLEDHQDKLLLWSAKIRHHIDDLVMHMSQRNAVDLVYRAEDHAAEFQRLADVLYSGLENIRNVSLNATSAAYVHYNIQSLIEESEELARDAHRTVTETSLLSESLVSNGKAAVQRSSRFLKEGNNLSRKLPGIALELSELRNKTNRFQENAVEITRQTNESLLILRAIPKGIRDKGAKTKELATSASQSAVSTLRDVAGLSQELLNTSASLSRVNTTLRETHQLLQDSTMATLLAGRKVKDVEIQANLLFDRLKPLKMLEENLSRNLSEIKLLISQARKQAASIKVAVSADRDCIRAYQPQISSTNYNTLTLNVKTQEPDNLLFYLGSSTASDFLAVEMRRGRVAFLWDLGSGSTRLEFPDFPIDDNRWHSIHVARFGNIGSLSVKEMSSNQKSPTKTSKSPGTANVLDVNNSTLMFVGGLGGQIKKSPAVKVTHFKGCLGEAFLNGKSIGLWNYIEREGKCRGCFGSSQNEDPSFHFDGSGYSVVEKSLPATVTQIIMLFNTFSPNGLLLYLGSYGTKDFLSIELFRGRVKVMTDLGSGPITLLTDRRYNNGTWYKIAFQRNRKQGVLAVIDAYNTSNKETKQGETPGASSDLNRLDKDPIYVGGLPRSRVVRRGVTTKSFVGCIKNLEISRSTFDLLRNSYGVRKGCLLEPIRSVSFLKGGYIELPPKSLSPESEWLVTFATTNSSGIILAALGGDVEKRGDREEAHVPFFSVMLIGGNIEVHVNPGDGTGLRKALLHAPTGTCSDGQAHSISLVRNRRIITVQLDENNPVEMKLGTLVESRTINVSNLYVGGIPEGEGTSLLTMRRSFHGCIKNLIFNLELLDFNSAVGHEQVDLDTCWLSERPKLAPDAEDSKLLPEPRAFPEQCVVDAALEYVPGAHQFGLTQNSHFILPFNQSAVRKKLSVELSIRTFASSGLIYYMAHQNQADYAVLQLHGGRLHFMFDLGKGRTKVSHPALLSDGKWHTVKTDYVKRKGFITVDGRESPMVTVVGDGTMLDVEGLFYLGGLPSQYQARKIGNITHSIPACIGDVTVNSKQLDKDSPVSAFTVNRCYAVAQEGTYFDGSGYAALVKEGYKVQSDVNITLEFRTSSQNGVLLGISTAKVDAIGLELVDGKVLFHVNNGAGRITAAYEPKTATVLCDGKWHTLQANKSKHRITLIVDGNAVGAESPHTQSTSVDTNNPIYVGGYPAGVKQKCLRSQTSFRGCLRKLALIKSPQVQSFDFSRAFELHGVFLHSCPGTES
Chain of Lactotransferrin (Homo sapiens) (P02788 whole entry): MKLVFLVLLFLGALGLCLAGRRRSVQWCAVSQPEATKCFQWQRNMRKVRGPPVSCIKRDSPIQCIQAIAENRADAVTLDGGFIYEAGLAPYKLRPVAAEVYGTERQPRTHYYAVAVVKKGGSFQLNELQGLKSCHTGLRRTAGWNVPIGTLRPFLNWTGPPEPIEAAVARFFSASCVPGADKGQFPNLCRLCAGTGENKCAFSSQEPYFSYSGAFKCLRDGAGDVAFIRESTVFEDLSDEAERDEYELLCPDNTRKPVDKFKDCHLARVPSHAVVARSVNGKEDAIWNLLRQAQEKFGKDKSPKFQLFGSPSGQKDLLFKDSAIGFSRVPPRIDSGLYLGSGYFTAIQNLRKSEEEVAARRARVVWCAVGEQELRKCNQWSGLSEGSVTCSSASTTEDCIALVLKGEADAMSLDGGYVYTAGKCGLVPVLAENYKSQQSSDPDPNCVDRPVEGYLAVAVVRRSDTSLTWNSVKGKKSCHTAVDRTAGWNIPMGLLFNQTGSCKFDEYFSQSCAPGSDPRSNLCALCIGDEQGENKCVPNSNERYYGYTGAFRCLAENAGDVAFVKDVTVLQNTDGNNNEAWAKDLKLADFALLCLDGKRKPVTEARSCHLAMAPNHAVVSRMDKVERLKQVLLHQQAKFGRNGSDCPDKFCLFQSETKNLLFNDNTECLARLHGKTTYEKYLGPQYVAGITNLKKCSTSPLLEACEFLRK

| Structure (SMILES) | Activity (Maackia amurensis) | Activity (Datura stramonium) | Activity (Arachis hypogaea) | Activity [1] | Activity (Erythrina crista-galli) | Activity (Triticum aestivum) | Activity (Canavalia ensiformis) | Activity [2] | Activity (Homo sapiens [3]) | Activity [4] | Activity [5] | Activity [6] | Activity (Homo sapiens [7]) | Activity [8] |
| --- | --- | --- | --- | --- | --- | --- | --- | --- | --- | --- | --- | --- | --- | --- |
| CC[C@H](C)[C@H](NC(=O)[C@H](C)NC(=O)CNC(=O)[C@H](CCCNC(=N)N)NC(=O)[C@@H](NC(=O)CCCC(C)=O)[C@@H](C)O)C(=O)N[C@H](C(=O)N[C@@H](CCC(N)=O)C(=O)N[C@H](C(=O)N1CCC[C@H]1C(=O)N[C@H](C(=O)N[C@@H](CC(C)C)C(=O)NCC(=O)N1CCC[C@H]1C(=O)N[C@H](C(=O)N[C@@H](CCC(N)=O)C(=O)N1CCC[C@H]1C(=O)N[C@H](C(=O)N[C@@H](CCCNC(=N)N)C(=O)N[C@H](C(N)=O)C(C)C)[C@@H](C)O)[C@@H](C)CC)[C@@H](C)O[C@H]1O[C@H](CO)[C@@H](O)[C@H](O)[C@@H]1O[C@@H]1O[C@H](CO)[C@@H](O[C@@H]2O[C@H](CO)[C@H](O)[C@H](O)[C@H]2O)[C@H](O)[C@H]1NC(C)=O)[C@@H](C)O[C@H]1O[C@H](CO)[C@@H](O)[C@H](O)[C@@H]1O[C@@H]1O[C@H](CO)[C@@H](O[C@@H]2O[C@H](CO)[C@H](O)[C@H](O)[C@H]2O)[C@H](O)[C@H]1NC(C)=O)[C@@H](C)CC ({Hexanoyl(5-oxo)}-TRGAIIQT(X2)PT(X2)LGPIQPTRV-NH2) | inactive | inactive | Active | Active | Active | Active | Active | Active | inactive | inactive | Active | Active | Active | Active |
| CC[C@H](C)[C@H](NC(=O)[C@H](C)NC(=O)CNC(=O)[C@H](CCCNC(=N)N)NC(=O)[C@@H](NC(=O)CCCC(C)=O)[C@@H](C)O)C(=O)N[C@H](C(=O)N[C@@H](CCC(N)=O)C(=O)N[C@H](C(=O)N1CCC[C@H]1C(=O)N[C@H](C(=O)N[C@@H](CC(C)C)C(=O)NCC(=O)N1CCC[C@H]1C(=O)N[C@H](C(=O)N[C@@H](CCC(N)=O)C(=O)N1CCC[C@H]1C(=O)N[C@H](C(=O)N[C@@H](CCCNC(=N)N)C(=O)N[C@H](C(N)=O)C(C)C)[C@@H](C)O[C@H]1O[C@H](CO)[C@@H](O)[C@H](O)[C@@H]1O[C@@H]1O[C@H](CO)[C@@H](O[C@@H]2O[C@H](CO)[C@H](O)[C@H](O)[C@H]2O)[C@H](O)[C@H]1NC(C)=O)[C@@H](C)CC)[C@@H](C)O[C@H]1O[C@H](CO)[C@@H](O)[C@H](O)[C@@H]1O[C@@H]1O[C@H](CO)[C@@H](O[C@@H]2O[C@H](CO)[C@H](O)[C@H](O)[C@H]2O)[C@H](O)[C@H]1NC(C)=O)[C@@H](C)O[C@H]1O[C@H](CO)[C@@H](O)[C@H](O)[C@@H]1O[C@@H]1O[C@H](CO)[C@@H](O[C@@H]2O[C@H](CO)[C@H](O)[C@H](O)[C@H]2O)[C@H](O)[C@H]1NC(C)=O)[C@@H](C)CC ({Hexanoyl(5-oxo)}-TRGAIIQT(X2)PT(X2)LGPIQPT(X2)RV-NH2) | inactive | inactive | Active | Active | Active | Active | Active | Active | inactive | inactive | Active | Active | Active | Active |
| CC[C@H](C)[C@H](NC(=O)[C@H](C)NC(=O)CNC(=O)[C@H](CCCNC(=N)N)NC(=O)[C@@H](NC(=O)CCCC(C)=O)[C@@H](C)O)C(=O)N[C@H](C(=O)N[C@@H](CCC(N)=O)C(=O)N[C@H](C(=O)N1CCC[C@H]1C(=O)N[C@H](C(=O)N[C@@H](CC(C)C)C(=O)NCC(=O)N1CCC[C@H]1C(=O)N[C@H](C(=O)N[C@@H](CCC(N)=O)C(=O)N1CCC[C@H]1C(=O)N[C@H](C(=O)N[C@@H](CCCNC(=N)N)C(=O)N[C@H](C(N)=O)C(C)C)[C@@H](C)O[C@H]1O[C@H](CO)[C@@H](O)[C@H](O)[C@@H]1O[C@@H]1O[C@H](CO)[C@@H](O)[C@H](O)[C@H]1NC(C)=O)[C@@H](C)CC)[C@@H](C)O[C@H]1O[C@H](CO)[C@@H](O)[C@H](O)[C@@H]1O[C@@H]1O[C@H](CO)[C@@H](O)[C@H](O)[C@H]1NC(C)=O)[C@@H](C)O[C@H]1O[C@H](CO)[C@@H](O)[C@H](O)[C@@H]1O[C@@H]1O[C@H](CO)[C@@H](O)[C@H](O)[C@H]1NC(C)=O)[C@@H](C)CC ({Hexanoyl(5-oxo)}-TRGAIIQT(GlcNAc(β1-2)αMan)PT(GlcNAc(β1-2)αMan)LGPIQPT(GlcNAc(β1-2)αMan)RV-NH2) | inactive | inactive | Active | Active | Active | Active | Active | Active | inactive | inactive | Active | Active | Active | Active |
| CC[C@H](C)[C@H](NC(=O)[C@H](C)NC(=O)CNC(=O)[C@H](CCCNC(=N)N)NC(=O)[C@@H](NC(=O)CCCC(C)=O)[C@@H](C)O)C(=O)N[C@H](C(=O)N[C@@H](CCC(N)=O)C(=O)N[C@H](C(=O)N1CCC[C@H]1C(=O)N[C@H](C(=O)N[C@@H](CC(C)C)C(=O)NCC(=O)N1CCC[C@H]1C(=O)N[C@H](C(=O)N[C@@H](CCC(N)=O)C(=O)N1CCC[C@H]1C(=O)N[C@H](C(=O)N[C@@H](CCCNC(=N)N)C(=O)N[C@H](C(N)=O)C(C)C)[C@@H](C)O[C@H]1O[C@H](CO)[C@@H](O)[C@H](O)[C@@H]1O)[C@@H](C)CC)[C@@H](C)O[C@H]1O[C@H](CO)[C@@H](O)[C@H](O)[C@@H]1O[C@@H]1O[C@H](CO)[C@@H](O[C@@H]2O[C@H](CO)[C@H](O)[C@H](O[C@]3(C(=O)O)C[C@H](O)[C@@H](NC(C)=O)[C@H]([C@H](O)[C@H](O)CO)O3)[C@H]2O)[C@H](O)[C@H]1NC(C)=O)[C@@H](C)O)[C@@H](C)CC ({Hexanoyl(5-oxo)}-TRGAIIQTPT(X1)LGPIQPT(αMan)RV-NH2) | inactive | inactive | Active | Active | Active | Active | Active | Active | inactive | inactive | Active | Active | Active | Active |
| CC[C@H](C)[C@H](NC(=O)[C@H](C)NC(=O)CNC(=O)[C@H](CCCNC(=N)N)NC(=O)[C@@H](NC(=O)CCCC(C)=O)[C@@H](C)O)C(=O)N[C@H](C(=O)N[C@@H](CCC(N)=O)C(=O)N[C@H](C(=O)N1CCC[C@H]1C(=O)N[C@H](C(=O)N[C@@H](CC(C)C)C(=O)NCC(=O)N1CCC[C@H]1C(=O)N[C@H](C(=O)N[C@@H](CCC(N)=O)C(=O)N1CCC[C@H]1C(=O)N[C@H](C(=O)N[C@@H](CCCNC(=N)N)C(=O)N[C@H](C(N)=O)C(C)C)[C@@H](C)O[C@H]1O[C@H](CO)[C@@H](O)[C@H](O)[C@@H]1O[C@@H]1O[C@H](CO)[C@@H](O)[C@H](O)[C@H]1NC(C)=O)[C@@H](C)CC)[C@@H](C)O[C@H]1O[C@H](CO)[C@@H](O)[C@H](O)[C@@H]1O[C@@H]1O[C@H](CO)[C@@H](O[C@@H]2O[C@H](CO)[C@H](O)[C@H](O[C@]3(C(=O)O)C[C@H](O)[C@@H](NC(C)=O)[C@H]([C@H](O)[C@H](O)CO)O3)[C@H]2O)[C@H](O)[C@H]1NC(C)=O)[C@@H](C)O)[C@@H](C)CC ({Hexanoyl(5-oxo)}-TRGAIIQTPT(X1)LGPIQPT(GlcNAc(β1-2)αMan)RV-NH2) | inactive | inactive | Active | Active | Active | Active | Active | Active | inactive | inactive | Active | Active | Active | Active |
